This is an account of results in patent US20110028552A1, “MEXILETINE AMINO ACID AND PEPTIDE PRODRUGS AND USES THEREOF” (priority 2009, published 2011).

For one series, the target named is T1, hNav 1.1 channel (Homo sapiens, UniProt P35498).
T1 construct: expressed in transfected cells
Put plainly: Block of cloned hNav1.1 channel in CHO cells (IonWorks Quattro). To be noted: for IC50 fold above the parent: relative to mexiletine. It is filed as cell-based. The method, then:
Data was corrected for leak current.
The tonic block was calculated as:
% Block (Tonic)=(1−ITP1,TA/ITP1,Control)×100%,
where ITP1, Control and ITP1, TA are the inward peak Na^+ currents elicited by the TP1 in control and in the presence of a test article, respectively. 10 Hz Block—the frequency-dependent block at stimulation frequency 10 Hz was calculated as: […]
where ITP11, Control and ITP11, TA are the inward peak Na^+ currents elicited by the TP11 in control and in the presence of a test article, respectively. The inactivation state block is defined as the decrease in test pulse (TP12) current amplitude due to the conditioning depolarizing pulse (TP11). The inactivation state block was calculated as:
% Block (inactivation state)=(1−(ITP12,TA/ITP12,TA)×100%,
where ITP12, Control and ITP12, TA are the inward peak Na^+ currents elicited by the TP12 in control and in the presence of a test article, respectively. Concentration-response data for the blocks were fit to an equation of the following form: […]

Series [1] concerns rabbit stomach smooth muscle. As to the kind of experiment: EFS-stimulated contractions of isolated rabbit stomach smooth muscle. Conditions: rabbit stomach antrum strips; EFS 14 Hz.
The subject of a further series is sodium channel. To be noted: De Bellis et al. (2006); cited from earlier work.
The conditions of series [2]: cited from earlier work.
Series [3] in a line: Systemic availability of mexiletine in the dog after oral prodrug dosing. It is filed as in vivo, Dog (Beagle). To be noted: 1 mg/kg mexiletine free base. On the procedure:
Test substances (i.e., mexiletine, and various mexiletine amino acid prodrugs) were administered by oral gavage to groups of five dogs. The characteristics of the test animals are set out in Table 6.
Blood samples were taken at various times after administration and submitted to analysis for parent drug using a validated LC-MS-MS assay. Pharmacokinetic parameters derived from the plasma analytical were determined using Win Nonlin.

For series [4] the following is noted: mexiletine from prodrug vs parent. The method, then: Blood samples were taken at various times after administration and submitted to analysis for the prodrug and parent drug using a validated LC-MS-MS assay. Pharmacokinetic parameters derived from the plasma analytical were determined using Win Nonlin.
A short description of series [5]: Systemic availability of mexiletine in the cynomolgus monkey after oral prodrug dosing. It is filed as in vivo. Conditions: 1 mg/kg mexiletine free base.
For series [6] the following is noted: cited from earlier work. The source holds these as a separate data set.
The mark [7] stands for this setting: hNav1.1 in CHO cells, frequency-dependent block at 10 Hz (TP11), read-out: IC50 10 Hz block.
Where [8] appears, read: hNav1.1 in CHO cells, inactivation state block (TP12), read-out: IC50 Inactivated state.
[9] abbreviates: hNav1.1 in CHO cells, tonic block (TP1), read-out: IC50 Tonic block.
Setting [10] is: hNav1.1, 10 Hz block, rounded values, read-out: IC50 values (with the 10 Hz block).

pIC50: −log10 of the molar value. Several values for one entry are separate records, joined by “and”; a condition that tells them apart may be missing. Equal entries are not always repeated. Structures can show the parent of a compound that is named as a salt. Where two headings read alike, the source gives them in different places.

As a reminder, the pIC50 is the IC50 on a negative log10 scale, so that one unit is a factor of ten. Take `Cc1cccc(C)c1OCC(C)NC(=O)C(N)Cc1c[nH]cn1` (centres unmarked) [Mexiletine histidine amide]: the pIC50 is 4.38 at hNav 1.1 channel (setting [7]), 4.67 at hNav 1.1 channel (setting [8]) and 4.10 at hNav 1.1 channel (setting [9]).

As to `Cc1cccc(C)c1OCC(C)NC(=O)CCN` (stereo not drawn) [Mexiletine β alanine amide], the pIC50 at hNav 1.1 channel (setting [7]) was 4.23; at hNav 1.1 channel (setting [8]), 4.63; on hNav 1.1 channel (setting [9]) it was 3.61.

For `Cc1cccc(C)c1OCC(C)NC(=O)c1ccncc1` (centres unmarked) [Mexiletine isonicotinic acid amide], the pIC50 at hNav 1.1 channel (setting [7]) is 3.36; on hNav 1.1 channel (setting [8]), 3.89; at hNav 1.1 channel (setting [9]) it was 3.09.

For the compound `Cc1cccc(C)c1OCC(C)N.Cl` (racemic) [Mexiletine hydrochloride, (rac)-1-(2,6-dimethylphenoxy)-2-propanamine hydrochloride, reference compound], the “calculated ED50, attenuation of EFS induced contractions” value (from here on “calculated ED50, attenuation”) in series [1] was 2.17 µM. Also, the pIC50 at hNav 1.1 channel (setting [10]) is 4.42; at hNav 1.1 channel (setting [7]), 4.42; on hNav 1.1 channel (setting [8]), 5.04; on hNav 1.1 channel (setting [9]), 3.94.

Regarding `Cc1cccc(C)c1OCC(C)NC(=O)[C@@H](N)CCC(=O)O.Cl` (stereo partly drawn) [Mexiletine glutamic acid amide, (S)-4-Amino-4-[2-(2,6-dimethyl-phenoxy)-1-methyl-ethylcarbamoyl]-butyric acid hydrochloride], the pIC50 on hNav 1.1 channel (setting [10]), on hNav 1.1 channel (setting [7]), on hNav 1.1 channel (setting [8]) and on hNav 1.1 channel (setting [9]) was less than 3.00 throughout. Further, the “IC50 fold above the parent” value on hNav 1.1 channel (hNav1.1) is on record as approximately 20 fold.

As to `Cc1cccc(C)c1OCC(C)NC(=O)C(N)CCCNC(N)=O` (centres unmarked) [Mexiletine citrulline amide], the results for the pIC50 at hNav 1.1 channel (setting [7]), at hNav 1.1 channel (setting [8]) and at hNav 1.1 channel (setting [9]) were 3.45, 3.74 and 3.31, respectively.

`Cc1cccc(C)c1OCC(C)NC(=O)[C@@H](N)CCC(N)=O` (stereo partly drawn) [Mexiletine glutamine amide, (S)-2-Amino-pentanedioic acid 5-amide 1-{[2-(2,6-dimethyl-phenoxy)-1-methyl-ethyl]-amide}hydrochloride]: the values for the pIC50 on hNav 1.1 channel (setting [7]), at hNav 1.1 channel (setting [8]) and at hNav 1.1 channel (setting [9]) were 3.86, 4.17 and 3.12, respectively.

Consider Para-hydroxymexiletine, for which the “sodium channel inhibitory activity retained vs parent molecule” value in the series with sodium channel was “around 25%”.

As for `Cc1cccc(C)c1OCC(C)NC(=O)CN(C)C` (centres unmarked) [Mexiletine dimethylglycine amide], the values for the pIC50 at hNav 1.1 channel (setting [7]), at hNav 1.1 channel (setting [8]) and on hNav 1.1 channel (setting [9]) were 4.99, 5.49 and 4.52, respectively.

For `Cc1cccc(C)c1OCC(C)NC(=O)C1CC(O)CN1` (centres unmarked) [Mexiletine 4-hydroxyproline amide], the pIC50 at hNav 1.1 channel (setting [7]) is 4.43; on hNav 1.1 channel (setting [8]) it was 4.81; on hNav 1.1 channel (setting [9]) it was 3.83.

As for `Cc1cccc(C)c1OCC(C)NC(=O)[C@@H](N)CC[S+](C)C.Cl.[Cl-]` (stereo partly drawn) [(S)-2-Amino-N-[2-(2,6-dimethyl-phenoxy)-1-methyl-ethyl]-4-(dimethyl-λ^4-sulfanyl chloride)-butyramide hydrochloride], the “IC50 fold above the parent” value on hNav 1.1 channel (hNav1.1) was approximately 20 fold. The pIC50 on hNav 1.1 channel (setting [7]), at hNav 1.1 channel (setting [8]) and on hNav 1.1 channel (setting [9]) was less than 3.00 throughout.

As to `Cc1cccc(C)c1OCC(C)NC(=O)[C@@H](N)CCCCN` (mixture of isomers) [Mexiletine lysine amide, 2,6-diamino-hexanoic acid [2-(2,6-dimethylphenoxy)-1-methylethyl]-amide ditrifluoroacetate], the “calculated ED50, attenuation” value in series [1] is 21.83 µM.

With `Cc1cccc(C)c1OCC(C)NC(=O)C1CCCCN1` (centres unmarked) [Mexiletine pipecolic acid amide], the pIC50 on hNav 1.1 channel (setting [7]) is 5.22; on hNav 1.1 channel (setting [8]), 5.57; on hNav 1.1 channel (setting [9]) it was 4.59.

Regarding `CNCC[C@H](Oc1cccc2ccccc12)c1cccs1` [Duloxetine], the “treated patients with nausea” value in [2] (FDA labeling) was 20-40%.

For the compound `Cc1cccc(C)c1OCC(C)NC(=O)C(N)CO` (centres unmarked) [Mexiletine serine amide], the figures for the pIC50 on hNav 1.1 channel (setting [7]), at hNav 1.1 channel (setting [8]) and at hNav 1.1 channel (setting [9]) were 4.30, 4.85 and 3.62, respectively.

As for `CC(C)C[C@H](CN)CC(=O)O` [pregabalin], in series [2] (patients treated at the higher doses (FDA labeling)), the “patients with dizziness and somnolence” value is given as “up to 30%”.

Consider `Cc1cccc(C)c1OCC(C)NC(=O)c1cccnc1` (centres unmarked) [Mexiletine nicotinic acid amide], for which the pIC50 on hNav 1.1 channel (setting [7]) is 3.46; on hNav 1.1 channel (setting [8]), 4.21; at hNav 1.1 channel (setting [9]) it was 3.31.

With `Cc1cccc(C)c1OCC(C)NC(=O)C(N)C(C)O` (centres unmarked) [Mexiletine threonine amide], the pIC50 on hNav 1.1 channel (setting [7]) is 4.38; on hNav 1.1 channel (setting [8]), 4.94; on hNav 1.1 channel (setting [9]), 3.63.

For `Cc1cccc(C)c1OCC(C)NC(=O)[C@@H](NC(=O)[C@@H](N)C(C)C)C(C)C.Cl` (some centres unmarked) [Mexiletine valine-valine amide], in series [3], the “F (abs)” value is 50 ± 9%.

`Cc1cccc(C)c1OCC(C)NC(=O)C(C)CN` (stereo not drawn) [Mexiletine 2-methyl β alanine amide]: the pIC50 was 4.29 on hNav 1.1 channel (setting [7]), 4.79 at hNav 1.1 channel (setting [8]) and 3.86 on hNav 1.1 channel (setting [9]).

In the case of `Cc1cccc(C)c1OCC(C)NC(=O)[C@@H](N)CCCCNC(=N)N` (stereo partly drawn) [Mexiletine homoarginine amide, (S)-2-Amino-6-guanidino-hexanoic acid [2-(2,6-dimethyl-phenoxy)-1-methyl-ethyl]-amide dihydrochloride], the pIC50 is 3.20 on hNav 1.1 channel (setting [10]), 3.21 at hNav 1.1 channel (setting [7]), 3.59 on hNav 1.1 channel (setting [8]) and 3.13 at hNav 1.1 channel (setting [9]). Besides, the “IC50 fold above the parent” value on hNav 1.1 channel (hNav1.1) is recorded as approximately 20 fold.

Take `Cc1cccc(C)c1OCC(C)NC(=O)[C@@H](N)Cc1ccccc1.Cl` (some centres unmarked) [Mexiletine phenylalanine amide]: the “F (abs)” value in series [3] was determined as 38 ± 6%.

Turning to `Cc1cccc(C)c1OCC(C)NC(=O)C(N)C1CC1` (centres unmarked) [Mexiletine cyclopropyl glycine amide], the pIC50 was 3.77 at hNav 1.1 channel (setting [7]), 4.37 at hNav 1.1 channel (setting [8]) and 3.32 at hNav 1.1 channel (setting [9]).

As to `CNCC(=O)NC(C)COc1c(C)cccc1C` (centres unmarked) [Mexiletine sarcosine amide], the pIC50 at hNav 1.1 channel (setting [7]) is 4.41; on hNav 1.1 channel (setting [8]), 5.20; at hNav 1.1 channel (setting [9]), 3.73.

Consider `Cc1cccc(C)c1OCC(C)NC(=O)CN.O=C(O)C(F)(F)F` (racemic) [(rac)-mexiletine-glycine trifluoroacetate], for which the “calculated ED50, attenuation” value in series [1] was 9.16 µM. For the same compound, the “F (abs)” value in series [3] was 57 ± 6%; in [5], 41.5 ± 4.11%. In addition, the Frel in [4] (individual ferrets, oral 10 mg free base equivalents/kg) was 67% and 107% and 103% and 77% and 108% and 101%. For the same compound, in series [4] (mean of six ferrets), the “Frel, Mean” value is 94%. Also, the pIC50 at hNav 1.1 channel (setting [7]) is 3.97; at hNav 1.1 channel (setting [8]) it was 4.67; at hNav 1.1 channel (setting [9]) it was 3.40. The “duration of vomiting relative to mexiletine” value in the series on ferret (% of that seen after mexiletine itself) is “less than 30%”. The “average number of vomits relative to parent drug” value in the series on ferret (% of those observed after dosing the parent drug) is recorded as “less than 30%”.

As for `Cc1cccc(C)c1OCC(C)NC(=O)[C@@H](N)C(C)C.Cl` (some centres unmarked) [Mexiletine valine amide], the “F (abs)” value in [3] was found to be 35 ± 6%.

For `NCC1(CC(=O)O)CCCCC1` [gabapentin], the Bioavailability result is listed as “approximately 60%” in [6] (900 mg/day gabapentin); approximately 47% in series [6] (1200 mg/day gabapentin); approximately 34% in [6] (2400 mg/day gabapentin); approximately 33% in series [6] (3600 mg/day gabapentin); approximately 27% in series [6] (4800 mg/day gabapentin).

Consider `Cc1cccc(C)c1OCC(C)NC(=O)C(N)CN` (stereo not drawn) [Mexiletine β amino alanine amide], for which the pIC50 at hNav 1.1 channel (setting [7]) was 3.75; on hNav 1.1 channel (setting [8]), 4.21; at hNav 1.1 channel (setting [9]), 3.32.
